Several values for one entry are separate records, joined by “and”; a condition that tells them apart may be missing. Identical values can stand only once.
Columns and labels:
[1] = test system: BV173 cells; experiment: Clonogenic assay of tissues of leukemic SCID mice; type: in vivo, SCID mice (human leukemic cells)
Protocol: A second assay for leukemic disease comprised a clonogenic assay in semisolid medium. […] By contrast, BV173 cells formed numerous, rapidly growing colonies. To rule out the possibility that the presence of BV173 cells permitted the growth of murine progenitors, mixing experiments were carried out.
To determine whether synthetic phosphorothioate oligodeoxynucleotides targeted against the bcr-abl junction of […] cells would modify the disease process in SCID mice. SCID mice were injected with 10^6 BV173 cells. The mice then received 1 mg of sense (ATCAATAAGG AAGCCCTTCAGCG, SEQ ID NO:34) or antisense ([…] ATTGAT, SEQ ID NO:29) b2/a2 bcr-abl phosphorothioate oligodeoxynucleotides (pyrogen leven <1 Eu/mg; 0.2 ml in Iscove modified Dulbecco medium in 5-10 seconds) intravenously for each of 9 consecutive days, beginning either 7 or 21 days after introducing 10^6 BV173 cells. Control mice received the diluent (iscove's modified Dulbecco medium) only. These time points approximate distinct disease stages in humans.
10^5 cells were plated in duplicate in 35×10 mm tissue culture dishes (Nunc, Inc., Naperville, Ill.) in HCC-4230 medium (Terry Fox Lab., Vancouver, Canada) supplemented with 2.5 mM L-glutamine, and allowed to grow for 12 days. Plates were scanned with an inverted microscope and total colony number was determined. The results are shown in FIG. 9 (C, untreated mouse; S, sense-treated mouse, AS, antisense-treated mouse).

[2] = test system: CML blast crisis cells (L-6 type junction); experiment: CFU-L colony formation of CML blast crisis cells (Example 3); type: cell-based, human
Source text: Normal bone marrow mononuclear cells (MNC) were obtained by aspiration from consenting volunteers and enriched for hematopoietic progenitors as previously reported by numerous investigators (Zamecnick et al., Proc. Natl. Acad. Sci. U.S.A. 83, 4143-4147 (1986); Caracciolo et al., J. Clin. Invest. 85, 55-61 (1990)). In brief, marrow cells were subjected to Ficoll-Hypaque density gradient sedimentation and then depleted of adherent monocyte-macrophage and T-lymphocytes by adherence to plastic Petri dishes and rosetting with neuraminidase-treated sheep red blood cells, respectively. Philadelphia chromosome-positive blast cells were isolated by Ficoll-Hypaque density gradient sedimentation from a CML patient in blast crisis (L-6 type junction). […] The residual non-blast cells had the morphological appearance of small lymphocytes. 25,000 MNC and 25,000 CML blast cells were combined and incubated with bcr-abl breakpoint-Specific antisense oligomer (SEQ ID NO:3) (40 μg/ml at h 0; 20 μg/ml 18 hours later) or with a 4 nucleotide mismatch bcr-abl antisense oligomer (SEQ ID NO:2) (40 μg/ml at 0 h; 20 μg/ml 18 hours later) or left untreated. Four hours after the second addition of oligonucleotides to the cultures, cells were seeded into duplicate methylcellulose dishes containing IL-3 (20 U/ml) and GM-CSF (5 ng/ml) and allowed to grow for an additional 12 days. At the end of the incubation period colonies were counted.
The data is shown in Table 3, below, wherein values represent mean ± standard deviation of duplicate control cultures (no oligonucleotide added) and duplicate experimental cultures from two separate experiments. Colony forming unit-granulocyte macrophage (CFU-GM)-derived colonies consisted of 50 or more cell aggregates, while CFU-GM-derived clusters were defined as aggregates of between 4 and 40 cells. These are normal hematopoietic colonies derived from progenitors with the capability to differentiate along the granulocytic and macrophage lineages. […]

[3] = 1 mg/day i.v. x9 from day +7, killed 26 days after last treatment (6 weeks)
[4] = 1 mg/mouse/day x9 from day +21, 26 days after treatment (8 weeks)

Substance	leukemic colonies, bone marrow and spleen [1, 3]	leukemic colonies, peripheral blood leukocytes [1, 3]	leukemic colonies, bone marrow ([1]; 1 mg/mouse/day i.v. x9 from day +7, killed 12 days after last treatment (4 weeks), untreated 353±52) [colonies]	leukemic colonies, peripheral blood mononuclear cells ([1]; 1 mg/mouse/day x9 from day +21, 12 days after last treatment (6 weeks), untreated 11.0±8.5) [colonies]	leukemic colonies, spleen ([1]; 1 mg/mouse/day x9 from day +21, 12 days after last treatment (6 weeks), untreated 80.5±12.0) [colonies]	leukemic colonies, bone marrow ([1]; 1 mg/mouse/day x9 from day +21, 12 days after last treatment (6 weeks), untreated 575.5±83.8) [colonies]	leukemic colonies, bone marrow [1, 4] [colonies]	leukemic colonies, peripheral blood [1, 4]	leukemic colonies, spleen [1, 4] [colonies]	Colonies or Clusters, CFU-L (colonies formed from CML blast crisis cells) ([2]; Table 3, 40 μg/ml at 0 h, 20 μg/ml 18 h later, 12 days, mean ± SD, control 806 ± 70)	number of colonies arising from the CML blast crisis cells (CFU-L) ([2]; after twelve days in culture)
SEQ ID NO:34: phosphorothioate sense sequence ATCAATAAGGAAGCCCTTCAGCG (23-mer b2a2 sense) (sense ATCAATAAGGAAGCCCTTCAGCG; all phosphorothioate, sugars by position and methylation of C not given here)	numerous leukemic colonies	A few colonies	380±25	14.5±4.9	116.0±29.7	668.5±59.1	839.5±41.7	51.0±41.7 colonies and 51.0±14.1 colonies	548.5±128.0		
SEQ ID NO:3: synthetic 18-mer GAAGGGCTTC TTCCTTAT specific for the 18-nucleotide target sequence of the L-6 bcr-abl junction (antisense GAAGGGCTTCTTCCTTAT; chemistry not given here)										180 ± 14 colonies or clusters	much lower than that arising in the presence of the mismatched bcr-abl oligomer

Reference: US5652222A, “Selective inhibition of leukemic cell proliferation by bcr-abl antisense oligonucleotides” (Temple University-of The Commonwealth System of Higher …, priority 1993, dated 1997)
